According to the CheMixHub viscosity set:

Assay: xn = mol fraction of the nth substance listed

[Cl-].[Cs+] + O
310.15 K, 101 kPa
Conditions | viscosity [mPa·s]
x1 = 0.000182 | 0.6996
x1 = 0.000907 | 0.7002
x1 = 0.001823 | 0.7061
x1 = 0.002695 | 0.7089
x1 = 0.003679 | 0.7129
x1 = 0.005197 | 0.719
x1 = 0.005988 | 0.7223

OCCCCCO + O=C1CCCN1
308.15 K, 101 kPa
Conditions | viscosity [mPa·s]
x1 = 0.479 | 21.15
x1 = 0.9392 | 54.65

CC(O)C(=O)O (centres undefined) + O=C(O)[C@@H]1CCCN1
Conditions | viscosity [mPa·s]
323.15 K, 100 kPa, x1 = 0.5 | 997.4

C[NH+](C)CCO.O=C([O-])CCCC(=O)O + O=S1(=O)CCCC1
101 kPa, x1 = 0.27
Conditions | viscosity [mPa·s]
303.15 K | 132.4
313.15 K | 81.7
323.15 K | 54.1

OC1CCCC1 + OCCO
viscosity [mPa·s], 100 kPa
Conditions | 293.15 K | 298.15 K | 303.15 K | 308.15 K | 313.15 K | 318.15 K
x1 = 0.0096 | 20.05 | 16.39 | 13.54 | 11.2 | 9.449 | 7.776
x1 = 0.0395 | 19.37 | 15.85 | 13.05 | 10.76 | 9.1 | 7.468
x1 = 0.0579 | 19.05 | 15.56 | 12.79 | 10.56 | 8.919 | 7.326
x1 = 0.0879 | 18.56 | 15.14 | 12.41 | 10.23 | 8.646 | 7.096
x1 = 0.1 | 18.37 | 14.97 | 12.3 | 10.1 | 8.562 | 7.014
x1 = 0.1962 | 17.2 | 13.96 | 11.39 | 9.382 | 7.926 | 6.505
x1 = 0.305 | 16.2 | 13.09 | 10.65 | 8.716 | 7.366 | 6.078
x1 = 0.3969 | 15.4 | 12.54 | 10.2 | 8.282 | 7.016 | 5.819
x1 = 0.4993 | 14.8 | 12.02 | 9.751 | 7.927 | 6.692 | 5.617
x1 = 0.5877 | 14.3 | 11.69 | 9.42 | 7.677 | 6.437 | 5.439
x1 = 0.6993 | 13.9 | 11.33 | 8.99 | 7.319 | 6.14 | 5.219
x1 = 0.797 | 13.56 | 11.01 | 8.69 | 7.01 | 5.861 | 5.05
x1 = 0.8977 | 13.15 | 10.62 | 8.345 | 6.737 | 5.625 | 4.89

Clc1ccccc1 + OCCOCCOCCO
viscosity [mPa·s], 101 kPa
Conditions | 298.15 K | 308.15 K
x2 = 0.0473 | 0.941 | 0.808
x2 = 0.149 | 1.491 | 1.172
x2 = 0.2493 | 2.307 | 1.682
x2 = 0.3495 | 3.504 | 2.4
x2 = 0.439 | 5.014 | 3.283
x2 = 0.4734 | 5.733 | 3.699
x2 = 0.5509 | 7.695 | 4.829
x2 = 0.6512 | 11.09 | 6.787
x2 = 0.7493 | 15.58 | 9.422
x2 = 0.8483 | 21.58 | 13.05
x2 = 0.9428 | 28.99 | 17.74

C=CC(=O)OCC + c1ccccc1
viscosity [mPa·s], 101 kPa
Conditions | x2 = 0.1283 | x2 = 0.2137 | x2 = 0.3255 | x2 = 0.4115 | x2 = 0.5361 | x2 = 0.6109 | x2 = 0.7033 | x2 = 0.8074 | x2 = 0.9025
298.15 K | 0.531 | 0.533 | 0.537 | 0.541 | 0.55 | 0.558 | 0.568 | 0.579 | 0.591
303.15 K | 0.499 | 0.5 | 0.501 | 0.502 | 0.509 | 0.516 | 0.524 | 0.535 | 0.548
308.15 K | 0.461 | 0.46 | 0.461 | 0.462 | 0.466 | 0.472 | 0.481 | 0.495 | 0.508
313.15 K | 0.412 | 0.41 | 0.411 | 0.412 | 0.415 | 0.42 | 0.431 | 0.444 | 0.458
